Patent publication US20070275977A1, “N-OXIDES OF PYRIDYLMETHYL -PIPERAZINE AND -PIPERIDINE DERIVATIVES” (priority 2006, published 2007)
Entries after “also recorded” stand apart in the source; their conditions may differ. Read-outs that look alike come from different tables or passages of the source.

Assays:
[1] = target: Dopamine-D2 (Homo sapiens, UniProt P14416); assay: In vitro receptor affinity, Dopamine-D2; assay type: binding; conditions: radioligand [3H]-spiperone, read-out: K1 (in vitro receptor affinity)
Dopamine-D2, sequence (P14416 whole entry): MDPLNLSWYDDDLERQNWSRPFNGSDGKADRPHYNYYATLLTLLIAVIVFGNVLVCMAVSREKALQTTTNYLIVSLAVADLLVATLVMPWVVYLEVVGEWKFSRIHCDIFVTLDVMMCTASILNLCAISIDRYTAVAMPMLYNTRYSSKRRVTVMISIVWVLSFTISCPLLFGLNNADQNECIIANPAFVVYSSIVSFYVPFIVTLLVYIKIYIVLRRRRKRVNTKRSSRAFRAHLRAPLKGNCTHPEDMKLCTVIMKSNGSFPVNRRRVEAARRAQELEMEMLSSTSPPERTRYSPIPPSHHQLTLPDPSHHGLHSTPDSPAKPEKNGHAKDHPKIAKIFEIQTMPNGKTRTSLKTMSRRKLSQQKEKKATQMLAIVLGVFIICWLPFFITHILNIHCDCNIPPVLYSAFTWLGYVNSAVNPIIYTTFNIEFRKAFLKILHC
Method: (§1) ln vitro affinity for neurotransmitter receptors: The binding data collected below were either obtained by CE REP (128, rue Danton, 92500 Rueil-Malmaison, France) or at Solvay Pharmaceuticals B.V. (C. J. van Houtenlaan 36, 1381 CP Weesp, The Netherlands), using well documented standard procedures. The affinities for dopamine-D2 and 5-HT1A receptors for instance, were measured as described by Creese (1997) and Gozlan (1983) respectively.

[2] = test system: Apomorphine-induced climbing behaviour in mice; assay: Antagonism of apomorphine-induced climbing behaviour in mice; assay type: in vivo; conditions: Mus musculus, po, read-out: Antagon. apomorphine ind. climbing: ED50
Method: (§2) For oral (p.o.) administration: to the desired quantity (0.5-5 mg) of the solid test compound in a glass tube, some glass beads were added and the solid was milled by vortexing for 2 minutes. After addition of 1 ml of a solution of 1% methylcellulose in water and 2% (v/v) of Poloxamer 188 (Lutrol F68), the compound was suspended by vortexing for 10 minutes. The pH was adjusted to 7. Remaining particles in the suspension were further suspended by using an ultrasonic bath.
(§3) Lower lip retraction, an in vivo animal model for serotonin 5-HT1A receptor agonistic activity, was measured according to the method described by Berendsen (1989); Apomorphine-induced climbing behaviour in mice, an in vivo animal model for dopamine-D2 receptor antagonistic activity, was determined according to the method described by Costall (1978).

[3] = Partition coefficient, experimental (Log P); assay type: physicochemical; conditions: at pH 7.0
[4] = test system: neurotransmitter receptors; assay: Pharmacological profile in vitro (overall statement)
Method: as §1
In vitro (ant)agonistic activity at human D2 receptors and 5-HT1A receptors was measured according to the methods described by Solomon (1974) and Weiss (1985) respectively, on the formation of adenylate cyclase in CHO cell-lines expressing these cloned receptors.

[5] = Plasma concentrations in mice after i.v. or p.o. administration, blood analyzed by LC-MS; assay type: in vivo; conditions: piperazine-N-oxide administered
Method: (§4) The LC-MS system consists of 2 Perkin elmer series 200 micro pumps. The pumps were connected to each other by a 50 pI tee mixer, and connected to a Gilson 215 auto sampler. The method was as follows:
(§5) The auto sampler was connected to a Waters Atlantis C18 30*4.6 mm column with 3 μm particles. The column was thermo stated in a Perkin Elmer series 200 column oven at 40° C. The column was connected to a Perkin Elmer series 200 UV meter with a 2.7 μl flowcel. The wavelength was set to 254 nm. The UV meter was connected to a Sciex API 150EX mass spectrometer. The mass spectrometer had the following parameters: Scanrange:150-900 a.m.u., polarity: positive; scan mode: profile; resolution Q1: UNIT; step size: 0.10 a.m.u.; time per scan: 0.500 sec; NEB: 10; CUR: 10; IS: 5200; TEM: 325; DF: 30; FP: 225 and EP: 10. The light scattering detector was connected to the Sciex API 150. The light scattering detector was a Sedere Sedex 55 operating at 50° C. and 3 bar N2. The complete system was controlled by a G3 powermac.
as §2, with “Remaining particles in the suspension were further suspended by using an ultrasonic bath.” left out

[6] = Brain concentrations in mice after i.v. or p.o. administration, LC-MS; assay type: in vivo; conditions: for concentration at 0.17 h / concentration at 0.5 h / concentration at 1 h / concentration at 3 h / concentration at 7 h / concentration at 24 h: mouse, brain, read-out: piperazine-N-ox analyzed in brain
Method: as §4, §5, §2
For intravenous (i.v.) administration: compounds were dissolved in physiological saline (0.9% NaCl) and the pH was adjusted to 7.
Data were averaged (n=3), and collected in table 4.

[7] = Pharmacological profile in vivo (overall statement)
Method: as §3

[8] = target: T1, Serotonin-5-HT1A (Homo sapiens, UniProt P08908); assay: In vitro receptor affinity, Serotonin-5-HT1A; assay type: binding; conditions: radioligand [3H]-8-OH-DPAT, read-out: K1 (in vitro receptor affinity)
T1 sequence (P08908 1-422): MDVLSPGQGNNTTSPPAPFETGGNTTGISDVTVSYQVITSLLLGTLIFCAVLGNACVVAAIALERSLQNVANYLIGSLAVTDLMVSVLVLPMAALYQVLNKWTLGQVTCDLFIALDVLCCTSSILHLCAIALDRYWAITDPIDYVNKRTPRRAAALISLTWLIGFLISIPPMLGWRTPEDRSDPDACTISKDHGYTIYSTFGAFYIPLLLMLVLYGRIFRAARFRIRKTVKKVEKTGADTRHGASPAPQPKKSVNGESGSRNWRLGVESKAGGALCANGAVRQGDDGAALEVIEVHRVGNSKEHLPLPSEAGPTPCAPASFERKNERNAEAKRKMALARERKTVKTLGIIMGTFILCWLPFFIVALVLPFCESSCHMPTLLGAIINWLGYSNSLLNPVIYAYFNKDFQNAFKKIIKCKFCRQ
Method: as §1

[9] = test system: Lower lip retraction; assay: Lower lip retraction; assay type: in vivo; conditions: po, read-out: Lower Lip Retraction: ED50
Method: as §2, §3

[10] = iv, 0.5 mg/kg i.v. of administered compound
[11] = po, 5 mg/kg p.o. of administered compound

[O-][N+]1(Cc2cncc(-c3ccc(F)cc3)c2)CCN(c2cccc3c2OCCO3)CC1 [piperazine N-oxide]
Ki [1]: > 1000 nM
ED50 [2]: 0.3 mg/kg
logP [3]: 1.7
pharmacological profile/activity in vitro relative to parent SLV313 [4]: virtually inactive; also recorded: nearly inactive
time at which plasma concentrations of piperazine-N-oxide and parent molecule cross [5]: within half an hour
detection of administered compound in brain ([6]; i.v. or p.o.): hardly detected in brain
concentration at 0.17 h [6, 10]: 3.1 ng/g
concentration at 0.5 h [6, 10]: 4.4 ng/g
concentration at 1 h [6, 10]: 0 ng/g
concentration at 3 h [6, 10]: 0 ng/g
concentration at 7 h [6, 10]: 0 ng/g
concentration at 24 h [6, 10]: 0 ng/g
concentration at 0.17 h [6, 11]: 2.9 ng/g
concentration at 0.5 h [6, 11]: 2.6 ng/g
concentration at 1 h [6, 11]: 0 ng/g
concentration at 3 h [6, 11]: 0 ng/g
concentration at 7 h [6, 11]: 0 ng/g
concentration at 24 h [6, 11]: 0 ng/g
melting point: 181 to 182 °C
pharmacological profile/potency in vivo relative to SLV313 ([7]; in vivo): equipotent
Ki [8]: 25 nM
ED50 [9]: 10 mg/kg

[O-][n+]1cc(C[N+]2([O-])CCN(c3cccc4c3OCCO4)CC2)cc(-c2ccc(F)cc2)c1 [SLV313-bis-N-oxide, 4-(2,3-dihydro-benzo[1,4]dioxin-5-yl-1-[5-4-fluorophenyl]-1-oxy-pyridin-3-ylmethyl)piperazine-1-oxide]
potency relative to corresponding parent molecule, the pyridine N-oxide ([7]; stated by analogy): equipotent
